Data published in PubChem BioAssay (NCI).
Where “and” joins values, the source holds several entries; their conditions need not be identical. Identical values can stand only once.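 Where inhibition never reached the appropriate level, the endpoint shown equals the highest concentration tested. Otherwise, values were interpolated linearly from a five-concentration, 48-hour dose response in 96-well plates. Abbreviation: GI50, concentration required for 50% inhibition of growth. TGI denotes the concentration required for complete inhibition of growth.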 Where a SMILES comes first, the peptide text is derived from it. Side-chain parts run from the residue outwards. The star is where a group is joined. Cbz = O=C(OCc1ccccc1)*; Boc = CC(C)(C)OC(=O)*

Assays:
Test in all cases: inhibition of tumour cell growth, NCI panel, 48 h
HCT-15 colon = tested on: HCT-15 colon
UACC-62 melanoma = tested on: UACC-62 melanoma
SF-539 CNS = tested on: SF-539 CNS
U251 CNS = tested on: U251 CNS
A549 NSCLC = tested on: A549 NSCLC
SK-MEL-2 melanoma = tested on: SK-MEL-2 melanoma
SK-OV-3 ovarian = tested on: SK-OV-3 ovarian
A498 renal = tested on: A498 renal
HCC-2998 colon = tested on: HCC-2998 colon
SNB-75 CNS = tested on: SNB-75 CNS
RPMI-8226 leukemia = tested on: RPMI-8226 leukemia
OVCAR-5 ovarian = tested on: OVCAR-5 ovarian
NCI-H522 lung = tested on: NCI-H522 lung
MCF7 breast = tested on: MCF7 breast
HS 578T breast = tested on: HS 578T breast

| Compound | TGI (HCT-15 colon) [µM] | TGI (UACC-62 melanoma) | TGI (SF-539 CNS) [µM] | TGI (U251 CNS) [µM] | TGI (A549 NSCLC) | TGI (SK-MEL-2 melanoma) [µM] | TGI (SK-OV-3 ovarian) [µM] | TGI (A498 renal) [µM] | TGI (HCC-2998 colon) [µM] | TGI (SNB-75 CNS) [µM] | TGI (RPMI-8226 leukemia) | TGI (OVCAR-5 ovarian) [µM] | TGI (NCI-H522 lung) [µM] | TGI (MCF7 breast) [µM] | TGI (HS 578T breast) [µM] | GI50 (SNB-75 CNS) [µM] |
| --- | --- | --- | --- | --- | --- | --- | --- | --- | --- | --- | --- | --- | --- | --- | --- | --- |
| COc1cc(C(O)C(=O)c2cnc3cc([N+](=O)[O-])ccc3n2)ccc1O (centres undefined) | > 100 | > 100 µM | > 100 | > 100 | > 100 µM | > 100 | > 100 | > 100 | > 100 | > 100 | > 100 µM |  |  |  |  |  |
| Cn1cnc(SC2=C3C(=O)C=C4S[C@H]5C[C@]42c2c(c(O)c4c6c2=[N+]3CCC=6C=N4)N5)c1CC(N)C(=O)O (some centres undefined) | > 100 | 29.2 µM | 31.8 | 31.3 | 56.7 µM | 28.2 | 52.8 | 36.5 | 29.8 | 34.1 | 55.7 µM | 28.5 | 16.4 |  |  |  |
| CC(C)(C)OC(=O)NC(CCCCNC(=O)CNC(=O)OCc1ccccc1)C(=O)NC(CCCCNC(=O)CNC(=O)OCc1ccccc1)C(=O)NC(CCCCNC(=O)CNC(=O)OCc1ccccc1)C(=O)NC(CCCCNC(=O)CNC(=O)OCc1ccccc1)C(=O)O (centres undefined) (Boc-K([Gly-Cbz])K([Gly-Cbz])K([Gly-Cbz])K([Gly-Cbz])-OH; configuration not given here) | > 100 | > 100 µM |  | > 100 | > 100 µM | > 100 |  |  | > 100 | > 100 | > 100 µM | > 100 | > 100 | > 100 |  |  |
| NC1=Nc2ccccc2Sc2nc3ccccc3n21 | > 100 | > 100 µM | > 100 | > 100 | > 100 µM |  | 77.9 |  |  | > 100 | > 100 µM | > 100 | > 100 | > 100 | > 100 |  |
| O=C1CC(C(COCc2ccccc2)OCc2ccccc2)CC(=O)N1 (centres undefined) | > 100 |  | > 100 | > 100 | > 100 µM |  |  |  | > 100 |  | > 100 µM | > 100 | > 100 | > 100 | > 100 |  |
| COc1cc2c(c(OC)c1OC)-c1ccc(SC)c(=O)cc1[C@@H](NC(=O)c1ccc([N+](=O)[O-])cc1)CC2 |  | 25 µM and > 100 µM |  |  | 25 µM and > 100 µM |  | 0.0575 | 3.57 | 0.0151 |  | 25 µM and > 100 µM | 0.171 |  |  |  | < 0.0025 |
| O=C(NNS(=O)(=O)c1ccccc1)c1csc(NC(=S)NC2CCCCC2)n1 | > 100 | 61.3 µM | 62.3 | > 100 | > 100 µM | 41.7 | > 100 | > 100 | > 100 | > 100 | > 100 µM | > 100 | 82.7 | > 100 |  |  |
| O=S1(=O)OCCCOS(=O)(=O)C1(Br)Br | > 100 | > 100 µM |  | > 100 | > 100 µM | > 100 | > 100 |  |  | > 100 | > 100 µM | > 100 | > 100 | > 100 | > 100 |  |
| CN(C(=O)C12C3C4C1C1C2C3C41C(O)C(C)(C)C)C(C)(C)C (centres undefined) |  | > 100 µM | > 100 | > 100 | > 100 µM | > 100 | > 100 | > 100 | > 100 | > 100 | > 100 µM | > 100 | > 100 |  |  |  |
| CCOc1ccc(NCC2CC/C(=C\c3ccc(Cl)cc3)C2=O)cc1 (centres undefined) | 23.7 | > 64.3 µM | > 57 | > 57.3 | > 100 µM | 58.7 | > 100 | > 95.9 | 18 | > 76.5 | 10.2 µM | > 100 | 13.9 |  |  |  |
| C=CCOCn1ccc(N)nc1=O | > 100 | > 100 µM | > 100 |  | > 100 µM |  | > 100 |  | > 100 | > 100 | > 100 µM |  | > 100 | > 100 | > 100 |  |
| C[N+](C)(C)CC(CC(=O)[O-])C1CC1 (centres undefined) | > 100 | > 100 µM | > 100 | > 100 | > 100 µM | > 100 | > 100 | > 100 |  | > 100 | > 100 µM | > 100 | > 100 |  |  |  |
| COc1ccc(N=Nc2c(-c3ccccc3)nn(C(=O)CC(=O)Nc3ccccc3Cl)c2-c2ccccc2)cc1 | > 100 | > 100 µM | > 100 | > 100 | > 100 µM |  |  | > 100 | > 100 | > 100 |  | > 100 | > 100 |  |  |  |
| CC(=O)OCCOCNC(=S)N/N=C(\C)c1cccs1 | > 100 | > 100 µM | > 100 | > 100 | > 100 µM | > 100 | > 100 | > 100 | > 100 | > 100 | > 100 µM | > 100 | > 100 |  |  |  |
| c1ccc2c(c1)Sc1ccccc1N2C1CN2CCC1CC2 (centres undefined) | 34 | 34.5 µM | 28.3 | 30.9 | 32.1 µM | 16.8 | 35.4 | 22.5 | 29 | 25.4 | 43.4 µM |  | 38.9 |  |  |  |
| CC1=NN(C(=O)Cc2ccccc2)C(=O)/C1=C\c1ccccc1O | > 100 | > 100 µM | > 100 | > 100 | > 100 µM | > 100 | > 100 | > 100 | > 100 |  | > 100 µM | > 100 | > 100 |  |  |  |
| O=c1[nH]c(=O)n(COCc2ccccc2)c2ccccc12 | > 100 | > 100 µM | > 100 | > 100 | > 100 µM | > 100 | > 100 | > 100 |  | 54.9 |  | > 100 |  | > 100 |  |  |
| C1=CN2C[n+]3ccc4ccccc4c3N=C2c2ccccc21 | > 100 | 4.32 µM | 14.8 | 10.2 | 21.6 µM | 9.33 | 47.8 |  |  |  | 11.8 µM | 47 | 5.09 | 3.71 | 30.4 |  |
